The record followed here is ChEMBL document CHEMBL3044680, “Synthesis, characterization, and antimicrobial studies of novel 1,3,4-thiadiazolium-5-thiolates” (2012).

Converted amounts (≈) assume the structure as drawn.

Common to all, as to assay type: functional
The test system of assay [1] is Staphylococcus aureus. Nature of the assay: Antimicrobial activity against Staphylococcus aureus after overnight incubation by broth dilution method. (In general: Dilution methods test growth across graded concentrations, often in twofold steps.)
Assay [2] relates to Pseudomonas aeruginosa. Nature of the assay: Antimicrobial activity against Pseudomonas aeruginosa at 200 ug/ml after 48 hr by cup-plate method. As to conditions: read-out: IZ.
The subject of assay [3] is Bacillus subtilis. As to the kind of experiment: Antimicrobial activity against Bacillus subtilis at 200 ug/ml after 48 hr by cup-plate method. The following applies: read-out: IZ.
Assay [4] has as its system Pseudomonas aeruginosa. Nature of the assay: Antimicrobial activity against Pseudomonas aeruginosa after overnight incubation by broth dilution method.
The test system of assay [5] is Escherichia coli. As to the kind of experiment: Antimicrobial activity against Escherichia coli after overnight incubation by broth dilution method.
In assay [6] the test system is Escherichia coli. Nature of the assay: Antimicrobial activity against Escherichia coli at 200 ug/ml after 48 hr by cup-plate method. The following applies: read-out: IZ.
The subject of assay [7] is Bacillus subtilis. Nature of the assay: Antimicrobial activity against Bacillus subtilis after overnight incubation by broth dilution method.
For assay [8], the system named is Staphylococcus aureus. As to the kind of experiment: Antimicrobial activity against Staphylococcus aureus at 200 ug/ml after 48 hr by cup-plate method. As to conditions: read-out: IZ.

For the compound `O=C(c1ccc(-n2c(-c3ccccc3)nc3ccccc3c2=O)cc1)[n+]1nc([S-])sc1-c1ccc(Cl)cc1`, the MIC came to 8 µg/mL (≈ 14.5 µM) against Staphylococcus aureus [1], 8 µg/mL (≈ 14.5 µM) in the assay on Pseudomonas aeruginosa [4], 16 µg/mL (≈ 28.9 µM) with Escherichia coli [5] and 8 µg/mL (≈ 14.5 µM) in the assay on Bacillus subtilis [7]. For the same compound, the zone of inhibition at 200 µg/mL was 21 mm in the assay with Pseudomonas aeruginosa [2], 20 mm in the assay on Bacillus subtilis [3], 16 mm in the assay with Escherichia coli [6] and 22 mm with Staphylococcus aureus [8].
Regarding `O=C(c1ccc(-n2c(-c3ccccc3)nc3ccccc3c2=O)cc1)[n+]1nc([S-])sc1-c1cccc([N+](=O)[O-])c1`, the MIC in the assay on Staphylococcus aureus [1], against Escherichia coli [5] and against Bacillus subtilis [7] was 64 µg/mL (≈ 114 µM) in each case. The zone of inhibition at 200 µg/mL turned out to be 10 mm with Pseudomonas aeruginosa [2], 15 mm in the assay with Bacillus subtilis [3], 13 mm in the assay with Escherichia coli [6] and 11 mm in the assay with Staphylococcus aureus [8].
For the compound `COc1ccc(-c2sc([S-])n[n+]2C(=O)c2ccc(Nc3nc(-c4ccccc4)nc4ccccc34)cc2)cc1[N+](=O)[O-]`, the MIC in the assay on Staphylococcus aureus [1] was 8 µg/mL (≈ 13.5 µM); against Pseudomonas aeruginosa [4], 8 µg/mL (≈ 13.5 µM); in the assay with Escherichia coli [5], 4 µg/mL (≈ 6.75 µM); in the assay on Bacillus subtilis [7], 4 µg/mL (≈ 6.75 µM). Moreover, the zone of inhibition at 200 µg/mL is 22 mm in the assay with Pseudomonas aeruginosa [2], 24 mm in the assay with Bacillus subtilis [3], 23 mm with Escherichia coli [6] and 22 mm in the assay on Staphylococcus aureus [8].
As for `O=C(c1ccc(-n2c(-c3ccccc3)nc3ccccc3c2=O)cc1)[n+]1nc([S-])sc1-c1ccc(Cl)c([N+](=O)[O-])c1`, the MIC with Staphylococcus aureus [1] is 8 µg/mL (≈ 13.4 µM); against Pseudomonas aeruginosa [4] it was 4 µg/mL (≈ 6.69 µM); in the assay on Escherichia coli [5] it was 8 µg/mL (≈ 13.4 µM); against Bacillus subtilis [7] it was 64 µg/mL (≈ 107 µM). The zone of inhibition at 200 µg/mL amounted to 24 mm in the assay with Pseudomonas aeruginosa [2], 14 mm in the assay with Bacillus subtilis [3], 22 mm in the assay on Escherichia coli [6] and 20 mm in the assay with Staphylococcus aureus [8].
For the compound `O=C(c1ccc(Nc2nc(-c3ccccc3)nc3ccccc23)cc1)[n+]1nc([S-])sc1-c1ccc(Cl)cc1`, the minimum inhibitory concentration (MIC) in the assay with Staphylococcus aureus [1] amounted to 16 µg/mL (≈ 29 µM); against Pseudomonas aeruginosa [4], 4 µg/mL (≈ 7.25 µM); against Escherichia coli [5] it was 8 µg/mL (≈ 14.5 µM); in the assay on Bacillus subtilis [7], 8 µg/mL (≈ 14.5 µM). Moreover, the zone of inhibition at 200 µg/mL came to 24 mm in the assay on Pseudomonas aeruginosa [2], 21 mm in the assay with Bacillus subtilis [3], 22 mm with Escherichia coli [6] and 19 mm in the assay with Staphylococcus aureus [8].
For `O=C(c1ccc(Nc2nc(-c3ccccc3)nc3ccccc23)cc1)[n+]1nc([S-])sc1-c1ccc(Cl)c([N+](=O)[O-])c1`, the MIC in the assay with Staphylococcus aureus [1] came out at 8 µg/mL (≈ 13.4 µM); in the assay on Pseudomonas aeruginosa [4] it was 8 µg/mL (≈ 13.4 µM); with Escherichia coli [5], 32 µg/mL (≈ 53.6 µM); with Bacillus subtilis [7], 16 µg/mL (≈ 26.8 µM). Moreover, the zone of inhibition at 200 µg/mL is 22 mm in the assay with Pseudomonas aeruginosa [2], 19 mm in the assay on Bacillus subtilis [3], 15 mm in the assay on Escherichia coli [6] and 20 mm in the assay on Staphylococcus aureus [8].
Regarding `O=C(c1ccc(Nc2nc(-c3ccccc3)nc3ccccc23)cc1)[n+]1nc([S-])sc1-c1ccc([N+](=O)[O-])cc1`, the minimal inhibitory concentration (MIC) against Staphylococcus aureus [1] was found to be 32 µg/mL (≈ 56.9 µM); in the assay with Pseudomonas aeruginosa [4], 32 µg/mL (≈ 56.9 µM); in the assay on Escherichia coli [5] it was 16 µg/mL (≈ 28.4 µM); with Bacillus subtilis [7], 16 µg/mL (≈ 28.4 µM). Besides, the zone of inhibition at 200 µg/mL in the assay on Pseudomonas aeruginosa [2] turned out to be 15 mm; in the assay on Bacillus subtilis [3] it was 19 mm; with Escherichia coli [6] it was 18 mm; with Staphylococcus aureus [8] it was 16 mm.
Take `Cc1sc([S-])n[n+]1C(=O)c1ccc(-n2c(-c3ccccc3)nc3ccccc3c2=O)cc1`: the minimal inhibitory concentration (MIC) in the assay on Staphylococcus aureus [1] was found to be 1 µg/mL (≈ 2.19 µM); against Pseudomonas aeruginosa [4] it was 16 µg/mL (≈ 35 µM); with Escherichia coli [5] it was 32 µg/mL (≈ 70.1 µM); with Bacillus subtilis [7] it was 8 µg/mL (≈ 17.5 µM). For the same compound, the zone of inhibition at 200 µg/mL was found to be 18 mm in the assay with Pseudomonas aeruginosa [2], 22 mm with Bacillus subtilis [3], 17 mm in the assay on Escherichia coli [6] and 28 mm in the assay on Staphylococcus aureus [8].
As to `Cc1sc([S-])n[n+]1C(=O)c1ccc(Nc2nc(-c3ccccc3)nc3ccccc23)cc1`, the MIC came to 16 µg/mL (≈ 35.1 µM) with Staphylococcus aureus [1], 4 µg/mL (≈ 8.78 µM) against Pseudomonas aeruginosa [4], 8 µg/mL (≈ 17.6 µM) in the assay on Escherichia coli [5] and 8 µg/mL (≈ 17.6 µM) against Bacillus subtilis [7]. The zone of inhibition at 200 µg/mL with Pseudomonas aeruginosa [2] was found to be 23 mm; in the assay on Bacillus subtilis [3] it was 21 mm; with Escherichia coli [6], 20 mm; in the assay on Staphylococcus aureus [8] it was 19 mm.
Regarding `O=C(c1ccc(Nc2nc(-c3ccccc3)nc3ccccc23)cc1)[n+]1nc([S-])sc1-c1ccccc1`, the MIC in the assay with Staphylococcus aureus [1] amounted to 16 µg/mL (≈ 30.9 µM); against Pseudomonas aeruginosa [4] it was 4 µg/mL (≈ 7.73 µM); against Escherichia coli [5], 8 µg/mL (≈ 15.5 µM); in the assay with Bacillus subtilis [7], 16 µg/mL (≈ 30.9 µM). The zone of inhibition at 200 µg/mL in the assay on Pseudomonas aeruginosa [2] came out at 24 mm; in the assay with Bacillus subtilis [3] it was 18 mm; in the assay on Escherichia coli [6], 20 mm; with Staphylococcus aureus [8], 19 mm.
For `O=C(c1ccc(Nc2nc(-c3ccccc3)nc3ccccc23)cc1)[n+]1nc([S-])sc1-c1cccc([N+](=O)[O-])c1`, the MIC against Staphylococcus aureus [1] amounted to 8 µg/mL (≈ 14.2 µM); against Pseudomonas aeruginosa [4], 8 µg/mL (≈ 14.2 µM); against Escherichia coli [5], 16 µg/mL (≈ 28.4 µM); with Bacillus subtilis [7], 32 µg/mL (≈ 56.9 µM). The zone of inhibition at 200 µg/mL in the assay on Pseudomonas aeruginosa [2] was 22 mm; in the assay on Bacillus subtilis [3], 16 mm; in the assay on Escherichia coli [6], 20 mm; in the assay on Staphylococcus aureus [8], 21 mm.
As for `O=C(c1ccc(-n2c(-c3ccccc3)nc3ccccc3c2=O)cc1)[n+]1nc([S-])sc1-c1ccccc1`, the MIC in the assay with Staphylococcus aureus [1] is 4 µg/mL (≈ 7.71 µM); in the assay on Pseudomonas aeruginosa [4] it was 8 µg/mL (≈ 15.4 µM); against Escherichia coli [5], 2 µg/mL (≈ 3.86 µM); against Bacillus subtilis [7], 2 µg/mL (≈ 3.86 µM). Moreover, the zone of inhibition at 200 µg/mL came to 22 mm in the assay on Pseudomonas aeruginosa [2], 25 mm with Bacillus subtilis [3], 28 mm with Escherichia coli [6] and 24 mm with Staphylococcus aureus [8].
For `COc1ccc(-c2sc([S-])n[n+]2C(=O)c2ccc(-n3c(-c4ccccc4)nc4ccccc4c3=O)cc2)cc1[N+](=O)[O-]`, the MIC against Staphylococcus aureus [1] stood at 16 µg/mL (≈ 27 µM); in the assay with Pseudomonas aeruginosa [4] it was 2 µg/mL (≈ 3.37 µM); in the assay on Escherichia coli [5], 32 µg/mL (≈ 53.9 µM); against Bacillus subtilis [7], 32 µg/mL (≈ 53.9 µM). For the same compound, the zone of inhibition at 200 µg/mL with Pseudomonas aeruginosa [2] was determined as 27 mm; in the assay on Bacillus subtilis [3] it was 16 mm; in the assay on Escherichia coli [6], 15 mm; in the assay on Staphylococcus aureus [8] it was 19 mm.
With `O=C(O)c1cn(C2CC2)c2cc(N3CCNCC3)c(F)cc2c1=O` [CIPROFLOXACIN], the minimum inhibitory concentration (MIC) against Staphylococcus aureus [1] was found to be 1 µg/mL (≈ 3.02 µM); with Bacillus subtilis [7], 0.5 µg/mL (≈ 1.51 µM). Also, the zone of inhibition at 200 µg/mL in the assay with Pseudomonas aeruginosa [2] stood at 41 mm; with Bacillus subtilis [3], 35 mm; in the assay with Escherichia coli [6] it was 38 mm; in the assay on Staphylococcus aureus [8], 31 mm.
On to `O=C(c1ccc(-n2c(-c3ccccc3)nc3ccccc3c2=O)cc1)[n+]1nc([S-])sc1-c1cc([N+](=O)[O-])ccc1Cl`, for which the MIC stood at 2 µg/mL (≈ 3.34 µM) against Staphylococcus aureus [1], 8 µg/mL (≈ 13.4 µM) in the assay on Pseudomonas aeruginosa [4], 16 µg/mL (≈ 26.8 µM) against Escherichia coli [5] and 16 µg/mL (≈ 26.8 µM) in the assay on Bacillus subtilis [7]. The zone of inhibition at 200 µg/mL was found to be 22 mm in the assay on Pseudomonas aeruginosa [2], 18 mm with Bacillus subtilis [3], 19 mm with Escherichia coli [6] and 26 mm in the assay with Staphylococcus aureus [8].
For `O=C(c1ccc(Nc2nc(-c3ccccc3)nc3ccccc23)cc1)[n+]1nc([S-])sc1-c1cc([N+](=O)[O-])ccc1Cl`, the minimal inhibitory concentration (MIC) with Staphylococcus aureus [1] amounted to 4 µg/mL (≈ 6.7 µM); in the assay on Pseudomonas aeruginosa [4], 2 µg/mL (≈ 3.35 µM); against Escherichia coli [5] it was 4 µg/mL (≈ 6.7 µM); against Bacillus subtilis [7], 8 µg/mL (≈ 13.4 µM). In addition, the zone of inhibition at 200 µg/mL with Pseudomonas aeruginosa [2] is 26 mm; in the assay with Bacillus subtilis [3], 22 mm; in the assay with Escherichia coli [6], 24 mm; in the assay on Staphylococcus aureus [8] it was 23 mm.
Consider `O=C(c1ccc(-n2c(-c3ccccc3)nc3ccccc3c2=O)cc1)[n+]1nc([S-])sc1-c1ccc([N+](=O)[O-])cc1`, for which the minimum inhibitory concentration (MIC) in the assay with Staphylococcus aureus [1] is 8 µg/mL (≈ 14.2 µM); against Pseudomonas aeruginosa [4], 8 µg/mL (≈ 14.2 µM); in the assay with Escherichia coli [5], 4 µg/mL (≈ 7.1 µM); against Bacillus subtilis [7], 4 µg/mL (≈ 7.1 µM). In addition, the zone of inhibition at 200 µg/mL is 22 mm in the assay with Pseudomonas aeruginosa [2], 24 mm in the assay on Bacillus subtilis [3], 23 mm with Escherichia coli [6] and 20 mm in the assay with Staphylococcus aureus [8].

The MIC is the lowest concentration found to suppress growth. Read a low MIC as inhibition by little substance.
